Test system: CP362 bacteria overexpressing the Tar receptor (pNT201)
Assay: Swarm assay on TB semi-solid agar (chemotaxis)
Format: cell-based, Escherichia coli
Details: 20 μM peptide, 35° C.

Sequence | expansion speed / chemotactic behavior of the bacteria
KKKMVLGVFALLQLISGSLKK [Tar-1 all-L, peptide corresponding to the transmembrane domain 1 of Tar, reference compound] | significantly reduced
KKKMVLGVFALLFLIGGSLKK [F/G mutant peptide] | no significant effect

Source: patent US20100240589A1, “DIASTEREOMERIC PEPTIDES USEFUL AS INHIBITORS OF MEMBRANE PROTEIN ASSEMBLY” (YEDA RESEARCH AND DEVELOPMENT CO., LTD. AT THE WEIZMANN …, priority 2003, published 2010)
